Results on 5 molecules are retold here after patent US20120129179A1, “SCN5A SPLICING FACTORS AND SPLICE VARIANTS FOR USE IN DIAGNOSTIC AND PROGNOSTIC METHODS” (THE BOARD OF TRUSTEES OF THE UNIVERSITY OF ILLINOIS, priority 2009, published 2012).

The target in data set [1] is RBM25 (Homo sapiens, UniProt P49756). Put plainly: Gel mobility shift assay. Conditions: 0.2 nM RNA, variable amounts of protein, 30 min at 4° C. The class given is binding. How it is done:
(§1) Gel mobility shift assays: The biotinylated wild-type ([…]) and mutant ([…]) RNA substrates (SEQ ID NOs: 32 and 33, respectively) were synthesized by Invitrogen. Binding of biotinylated RNA to RBM25 was achieved by incubating 0.2 nM RNA and variable amounts of protein for 30 min at 4° C. in 20 μL of binding buffer (10 mM Tris-HCl, 10 mM HEPES, 100 mM NaCl, 0.1% Triton X-100, 2 mM MgCl2, 1.5 mM dithiothreitol (DTT) pH 7.5, 7% glycerol). For the competition assays, a molar excess of unlabeled competitor RNAs at various fold levels was added to the pre-incubated reaction mixture. Samples were fractionated in a native 5% polyacrylamide gel, transferred to Hybond-N+nylon membrane (Amersham Biosciences), and detected with a LightShift chemiluminescent electrophoretic mobility shift assay kit (Pierce) by following the manufacturer's protocol.
(§2) Gel mobility shift assays were performed as described previously with modification (Shang et al., Am. J. Physiol. Cell. Physiol., 292:C886-95, 2007, the disclosure of which is incorporated herein by reference in its entirety.). The biotinylated wild-type ([…]) and mutant ([…]) RNA substrates (SEQ ID NOs: 32 and 33, respectively) were synthesized. Binding of biotinylated RNA to RBM25 was achieved by incubating 0.2 nM RNA and variable amounts of protein for 30 min at 4° C. in 20 μL binding buffer. […]

Data set [2] has as its system PERK. Put plainly: RT-PCR of PERK expression. Type of data set: cell-based, human. Conditions: Ang II-treated, 48 h. How it is done: (§3) Real-Time PCR quantification: Total RNA was isolated from cultured cells using the Qiagen RNeasy Mini Kit (Valencia, Calif.). Total RNA from human ventricles was isolated using the RNeasy Lipid Tissue Mini Kit (Qiagen). Reverse transcription was carried out at 42° C. for 1 h with Powerscript reverse transcriptase (Roche). β-Actin was used as a reference when making quantitative comparison.
(§4) Hypoxia and AngII were used to increase abnormal SCN5A splicing. The expressions of PERK and sXBP1 were measured by RT-PCR. […] To test if this upregulation of one arm of the UPR was mediated by SCN5A mRNA variants, exogenous E28C and E28D were introduced. The Jurkat cells were divided into four experiment groups: normal control, empty vector control, variant E28C overexpressioned cells, and variant E28D overexpressioned cells. The expression of PERK was measures by RT-PCR in each group at the time point 48 h. […] The upregulation of PERK in Jurkat cells was further confirmed by Western blot.

Data set [3] deals with sXBP1. As to the kind of experiment: RT-PCR of sXBP1 expression. The class given is cell-based, human. Conditions: Ang II-treated. How it is done: as §3, §4
Data set [4] has as its system RBM25. As to the kind of experiment: Western blot of RBM25 in Jurkat cells. The class given is cell-based, human. The settings on record: Ang II 100 nmol/L, vs control group. An excerpt:
(§5) Western blot analysis: The Mini-PROTEAN® Tetra Electrophoresis System from BioRad was used for Western blot analysis. Anti-Nav1.5 antibody, recognizing all channel variants, was provided by Dr. Peter Mohler (University of Iowa, Iowa City, Iowa). Anti-RBM25 antibody was provided by Dr. Huang (Dana-Farber Cancer Institute, Harvard, Boston, Mass.). Anti-PERK and hLuc7A antibodies were purchased from R&D Systems (Minneapolis, Minn.) and Millipore, (Billerica, Mass.).
(§6) The upregulation of splicing factors RBM25 and hLuc7A in Jurkat cells was further confirmed by Western blot. The Jurkat cells were divided into three experiment groups: normoxia, hypoxia-treated (1% O2), and Ang II-treated (100 nmol/L). The expressions of RBM25 and hLuc7A were analyzed by Western blot at three time points (12 h, 24 h, and 48 h) for hypoxia-treated group and at four time points (24 h, 48 h, 72 h, and 96 h) for Ang II-treated group. […] The density of hLuc7A was increased by 242.3±9.5%, 236.1±8.4% and 268.8±9.8% in hypoxia-treated group at time points 12 h, 24 h and 48 h, respectively, and was increased by 256.3±9.1%, 246.5±8.6%, 279.7±9.3% and 283.6±9.9% in Ang II-treated group at time points 24 h, 48 h, 72 h and 96 h, respectively (p<0.05).

Data set [5] has as its system major UPR components (PERK, calnexin, CHOP). Put plainly: Induction of major UPR components in hESC-CMs. The class given is cell-based, human. The settings on record: 100 nmol/L Ang II. An excerpt:
The correlation of expression changes among PERK, major human embryonic stem cell-derived cardiomyocytes (hESC-CMs). […] E28C and E28D constructs were transduced to overexpress the truncated proteins.
Finally, downregualtion of PERK prevented the loss of full-length SCN5A mRNA abundance with these stimuli.

The subject of data set [6] is SCN5A variant E28D. As to the kind of experiment: RT-PCR of SCN5A variant E28D. Type of data set: cell-based, human. Conditions: Ang II treatment. How it is done:
as §3
(§7) Changes in hLuc7A and RBM25 correlated with SCN5A E28C and E28D variant abundances. Under hypoxia, the expression of SCN5A variants E28C and E28D were increased by 373.5±5.7% and 636.2±7.6%, respectively (p<0.05), while the expressions of the full length SCN5A transcript was decreased by 64.6±4.9% (p<0.05). With Ang II treatment, the expressions of the variants were increased by 291.4±5.2% and 433.7±6.5% for E28C and E28D, respectively (p<0.05), while the expression of the full length SCN5A transcipt was decreased by 78.9±5.4% (p<0.05).
(§8) The siRNA knockdown efficiency was estimated by both RT-PCR and Western blot and was not less than 50%. The expressions of SCN5A and the variants E28C and E28D were measured by RT-PCR in all experiment groups at time points of maximal siRNA effect.

For data set [7], the system named is PERK. As to the kind of experiment: Western blot of PERK in Jurkat cells. The class given is cell-based, human. Conditions: Ang II-treated, vs control group.
Description: as §5, §4
For orientation: Immunoblotting shows a protein as a band on a membrane.

The subject of data set [8] is hLuc7A. Put plainly: Western blot of hLuc7A in Jurkat cells. Conditions: Ang II 100 nmol/L, vs control group. Type of data set: cell-based, human.
Description: as §5, §6

The subject of data set [9] is RBM25. As to the kind of experiment: Real-time RT-PCR of RBM25 mRNA in Jurkat cells and H9 hESC-cardiomyocytes. The class given is cell-based, human. Conditions: Ang II-treated (100 nmol/L). How it is done: (§9) Cell culture assays: Jurkat T cell clones E6.1 (ATCC, Manassas, Va.) were cultured at 37° C. and 5% CO2 in RPMI 1640 medium supplemented with 10% heat inactivated fetal calf serum, 4 mM glutamine, 75 units/mL streptomycin and 100 units/mL penicillin. WA09 (H9) human undifferentiated ESCs were obtained through the National Stem Cell Bank and maintained on irradiated mouse embryonic fibroblasts at 37° C. with 5% CO2. The culture medium consisted of DMEM/F12 (Invitrogen, Carlsbad, Calif.) supplemented with 15% knockout serum, 1% non-essential amino acids, 1 mmol/L L-glutamine, 0.1 mmol/L β-mercaptoethanol, and basic fibroblast growth factor of 20 ng/mL.
as §3
(§10) Because AngII and hypoxia are common in heart failure, we investigated whether these two conditions could influence RBM25 and hLuc7A levels. […] The Jurkat cells and H9 hESC-CMs were divided into three experiment groups: normoxia, hypoxia-treated (1% O2), and Ang II-treated (100 nmol/L). […]

Data set [10] has as its system SCN5A variant E28C. Put plainly: RT-PCR of SCN5A variant E28C. The class given is cell-based, human. Conditions: Ang II treatment. How it is done: as §3, §7, §8
The test system of data set [11] is full length SCN5A transcript. As to the kind of experiment: RT-PCR of full length SCN5A transcript. The class given is cell-based, human. The settings on record: Ang II treatment. How it is done:
as §3, §7
Hypoxia and AngII were used to increase abnormal SCN5A splicing. The expressions of PERK and sXBP1 were measured by RT-PCR. […] To test if this upregulation of one arm of the UPR was mediated by SCN5A mRNA variants, exogenous E28C and E28D were introduced. The Jurkat cells were divided into four experiment groups: normal control, empty vector control, variant E28C overexpressioned cells, and variant E28D overexpressioned cells. […]

Data set [12] has as its system hLuc7A. As to the kind of experiment: Real-time RT-PCR of hLuc7A mRNA in Jurkat cells and H9 hESC-cardiomyocytes. Type of data set: cell-based, human. The settings on record: Ang II-treated (100 nmol/L). The protocol:
as §9, §3, §10
In general terms: Quantitative PCR measures a nucleic acid by following its amplification.

Data set [13] deals with T1, RBM25 (UniProt P49756 SEQ:1-843). As to the kind of experiment: EMSA; concentration-dependent; 0.2 nM RNA, 10 mM Tris-HCl, 10 mM HEPES, 100 mM NaCl, 2 mM MgCl2, pH 7.5, 4 C; unlabeled competitor assay also run. The settings on record: label: biotin. How it is done: as §1, with “MgCl₂,” for “MgCl2,”
as §2
A general note: Mobility shift assays separate free from complexed probe on a gel.

For data set [14], the target named is T1, RBM25. Put plainly: EMSA; mutated canonical site; 0.2 nM RNA, 100 mM NaCl, 2 mM MgCl2, pH 7.5, 4 C. The settings on record: label: biotin. The protocol: as §1, with “MgCl₂,” for “MgCl2,”
as §2

T1 sequence (P49756 whole entry): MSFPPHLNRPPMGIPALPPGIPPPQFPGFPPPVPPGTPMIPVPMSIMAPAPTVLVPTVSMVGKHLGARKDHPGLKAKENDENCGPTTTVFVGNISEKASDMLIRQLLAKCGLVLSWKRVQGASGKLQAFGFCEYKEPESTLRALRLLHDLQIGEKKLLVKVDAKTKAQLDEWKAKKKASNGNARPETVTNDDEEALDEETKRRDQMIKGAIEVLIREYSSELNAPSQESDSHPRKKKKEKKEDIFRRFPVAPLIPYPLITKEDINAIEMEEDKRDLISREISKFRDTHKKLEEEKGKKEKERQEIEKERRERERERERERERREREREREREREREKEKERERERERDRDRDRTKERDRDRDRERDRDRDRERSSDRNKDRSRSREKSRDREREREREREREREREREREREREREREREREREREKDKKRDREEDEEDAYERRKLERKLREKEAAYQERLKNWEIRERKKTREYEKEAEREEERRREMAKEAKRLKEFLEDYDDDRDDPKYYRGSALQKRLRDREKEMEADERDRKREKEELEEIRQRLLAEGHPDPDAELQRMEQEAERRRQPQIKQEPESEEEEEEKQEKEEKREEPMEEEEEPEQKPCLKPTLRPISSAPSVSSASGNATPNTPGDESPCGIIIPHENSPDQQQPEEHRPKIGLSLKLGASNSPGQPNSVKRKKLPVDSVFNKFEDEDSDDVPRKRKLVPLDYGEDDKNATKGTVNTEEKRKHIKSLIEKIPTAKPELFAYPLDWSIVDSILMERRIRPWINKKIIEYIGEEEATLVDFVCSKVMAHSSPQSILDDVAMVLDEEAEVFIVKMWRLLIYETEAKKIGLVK
Sequence of RBM25 (Homo sapiens, UniProt P49756) (P49756 whole entry): as above

As for “CAGCAGGCGGGCAGCGGCCU (RNA, backbone not given here; biotinylated RNA) [wild-type RNA substrate]”, the “binding of RBM25 to biotinylated RNA substrate” value in data set [1] is “bound the wild-type SCN5A sequence in a concentration-dependent manner”.

For “CAGCAGGUUAGAGGCGGCCU (RNA, backbone not given here; biotinylated RNA) [mutant RNA substrate]”, in data set [1], the “binding of RBM25 to biotinylated RNA substrate” value is listed as “inability of RBM25 to bind”.

Turning to “angiotensin II (DRVYIHPF; Angiotensin-2; UniProt P01019 25-32, looked up) [Ang II, angiotensin II, used at 100 nmol/L to treat Jurkat cells and hESC-CMs]”, in data set [2], the “expression of PERK increased by” value is 14.2±0.6 fold. Moreover, the “expression upregulation of sXBP1” value in data set [3] was “no expression upregulation”. Also, the “density of RBM25 increased by” value in data set [4] (24 h) amounted to 209.5±8.8%; in data set [4] (48 h), 212.6±9.7%; in data set [4] (72 h), 181.3±8.3%; in [4] (96 h) it was 198.8±8.7%. Further, the “induction of major UPR components (PERK, calnexin, CHOP)” value in [5] is recorded as “could induce major UPR components”. Besides, the “expression of SCN5A variant E28D increased by” value in data set [6] was 433.7±6.5%. Further, the “density of PERK increased by” value in data set [7] worked out at 383.2±10.7%. Besides, the “density of hLuc7A increased by” value turned out to be 256.3±9.1% in data set [8] (24 h), 246.5±8.6% in data set [8] (48 h), 279.7±9.3% in [8] (72 h) and 283.6±9.9% in [8] (96 h). Also, the “expression of RBM25 increased by” value is listed as 42.1±4.7% in data set [9] (ES cells (H9 hESC-CMs)) and 50.8±4.9% in data set [9] (Jurkat cells). In addition, in [10], the “expression of SCN5A variant E28C increased by” value is 291.4±5.2%. Also, in [11], the “expression of the full length SCN5A transcript decreased by” value stood at 78.9±5.4%. For the same molecule, the entries for the “expression of hLuc7A increased by” value in data set [12] (ES cells (H9 hESC-CMs)) and in data set [12] (Jurkat cells) were 181.2±6.7% and 187.3±7.9%, respectively.

Turning to CAGCAGGCGGGCAGCGGCCU (ssRNA) [SCN5A exon 28 wild-type RNA], the binding result in data set [13] was “binds”.

Consider CAGCAGGUUAGAGGCGGCCU (ssRNA) [SCN5A exon 28 mutant RNA], for which, in [14], the binding result was “no binding”.
